Reference: patent publication US10781224B2, “Bis(oxymethyl)phosphinic acid and biogenic metal salts thereof as regulators of plant growth and development” (priority 2016, dated 2020)
Where “and” joins values, the source holds several entries; their conditions need not be identical. Equal entries are not always repeated.

Experiments:
Type in all cases: in vivo
[1] = tested on: winter wheat (Vershin variety); assay: Winter wheat seed treatment with BHMPA salts: germination energy and germination rate
How it was run: (§1)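 Corn, winter wheat and rice seeds (50 per dish, on filter paper) were soaked for 1 h in BHMPA or its metal salts at 1·10^−6-1·10^−12%, with water as control. Germination energy was read on day 4 and germination rate on day 8 for wheat and day 7 for rice and corn, following GOST 12038-84, as the mean of four replicates.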

[2] = tested on: corn (Krasnodar 385 MV variety); assay: Corn seed treatment with BHMPA salts: germinating power
How it was run: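 Seeds (50 per Petri dish on two layers of filter paper) soaked 1 h in BHMPA or its Ca, Mg, Na, Co, Mn, Cu or Zn salts at 1·10^−6-1·10^−12%, with water controls. Germination energy read on day 4, germination on day 8 (wheat) or day 7 (rice, corn), as % means of four replicates. Germinating power taken as root and sprout length plus wet and dry mass per 100 seedlings.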

[3] = tested on: rice (Diamant variety); assay: Rice seed treatment with BHMPA salts: germination energy and germination rate; conditions: for Germination energy / Germination rate: rice
How it was run: as §1

[4] = winter wheat Vershin, 1·10^−6% solution
[5] = winter wheat Vershin, 1·10^−7% solution
[6] = winter wheat Vershin, 1·10^−8% solution
[7] = winter wheat Vershin, 1·10^−9% solution
[8] = winter wheat Vershin, 1·10^−10% solution
[9] = winter wheat Vershin, 1·10^−11% solution
[10] = winter wheat Vershin, 1·10^−12% solution
[11] = winter wheat, comparative study vs Melaphen, 1·10^−9% solution
[12] = corn seeds, solution concentration 1 · 10^−6%, copper salt of BHMPA
[13] = corn seeds, solution concentration 1 · 10^−7%, copper salt of BHMPA
[14] = corn seeds, solution concentration 1 · 10^−8%, copper salt of BHMPA
[15] = corn seeds, solution concentration 1 · 10^−9%, copper salt of BHMPA
[16] = corn seeds, solution concentration 1 · 10^−10%, copper salt of BHMPA
[17] = corn seeds, solution concentration 1 · 10^−11%, copper salt of BHMPA
[18] = corn seeds, solution concentration 1 · 10^−12%, copper salt of BHMPA
[19] = rice seed treatment, solution 1 · 10^−10%
[20] = comparative study vs Melaphen, 1·10^−8% solution

Copper BHMPA Salt [Cu-salt] gave a Germination energy [1, 4] of 81.0%, a Germination rate [1, 4] of 84.0% and a Germination energy [1, 5] of 87.3%. For the same substance, the Germination rate [1, 5] was 90.0%, the Germination energy [1, 6] was 91.4% and the Germination rate [1, 6] was 96.0%. For the same substance, the Germination energy [1, 7] was 94.9%, the Germination rate [1, 7] was 98.0% and 94.3% and the Germination rate ([1]; winter wheat Vershin, 1·10^−9% solution, listed as Cu) was 98.0%. It also gave a Germination energy [1, 8] of 92.1%, a Germination rate [1, 8] of 96.7% and a Germination energy [1, 9] of 91.7%. It also gave a Germination rate [1, 9] of 94.0%, a Germination energy [1, 10] of 87.5% and a Germination rate [1, 10] of 90.0%. The Germination energy [1, 11] was 94.7%, the Germination rate [1, 11] was 98.7% and the “optimum concentration for treating corn seeds before sowing” value ([2]; corn) was 1·10^−8%. For the same substance, the “Length, root” value [2, 12] was 5.2 cm, the “Length, root, + % to control” value [2, 12] was 8% and the “Length, sprout” value [2, 12] was 4.2 cm. For the same substance, the “Length, sprout, + % to control” value [2, 12] was 20%, the “Mass, dry, root” value [2, 12] was 1.27 g/100 plantlings and the “Mass, dry, root, + % to control” value [2, 12] was 7%. The “Mass, dry, sprout” value [2, 12] was 1.01 g/100 plantlings, the “Mass, dry, sprout, + % to control” value [2, 12] was 2% and the “Mass, wet, root” value [2, 12] was 8.99 g/100 plantlings. The “Mass, wet, root, + % to control” value [2, 12] was 11%, the “Mass, wet, sprout” value [2, 12] was 7.21 g/100 plantlings and the “Mass, wet, sprout, + % to control” value [2, 12] was 15%. The “Length, root” value [2, 13] was 5.4 cm, the “Length, root, + % to control” value [2, 13] was 12.5% and the “Length, sprout” value [2, 13] was 4.6 cm. For the same substance, the “Length, sprout, + % to control” value [2, 13] was 31%, the “Mass, dry, root” value [2, 13] was 1.38 g/100 plantlings and the “Mass, dry, root, + % to control” value [2, 13] was 16%. The “Mass, dry, sprout” value [2, 13] was 1.09 g/100 plantlings, the “Mass, dry, sprout, + % to control” value [2, 13] was 10% and the “Mass, wet, root” value [2, 13] was 9.81 g/100 plantlings. For the same substance, the “Mass, wet, root, + % to control” value [2, 13] was 21%, the “Mass, wet, sprout” value [2, 13] was 7.94 g/100 plantlings and the “Mass, wet, sprout, + % to control” value [2, 13] was 27%. The “Length, root” value [2, 14] was 5.6 cm, the “Length, sprout” value [2, 14] was 4.8 cm and the “Length, sprout, + % to control” value [2, 14] was 37%. The “Mass, dry, root” value [2, 14] was 1.53 g/100 plantlings, the “Mass, dry, root, + % to control” value [2, 14] was 28.5% and the “Mass, dry, sprout” value [2, 14] was 1.17 g/100 plantlings. For the same substance, the “Mass, dry, sprout, + % to control” value [2, 14] was 18%, the “Mass, wet, root” value [2, 14] was 10.67 g/100 plantlings and the “Mass, wet, root, + % to control” value [2, 14] was 31%. For the same substance, the “Mass, wet, sprout” value [2, 14] was 8.82 g/100 plantlings, the “Mass, wet, sprout, + % to control” value [2, 14] was 41% and the “Length, root” value [2, 15] was 5.3 cm. For the same substance, the “Length, root, + % to control” value [2, 15] was 10%, the “Length, sprout” value [2, 15] was 4.7 cm and the “Length, sprout, + % to control” value [2, 15] was 34%. The “Mass, dry, root” value [2, 15] was 1.50 g/100 plantlings, the “Mass, dry, root, + % to control” value [2, 15] was 26% and the “Mass, dry, sprout” value [2, 15] was 1.13 g/100 plantlings. For the same substance, the “Mass, dry, sprout, + % to control” value [2, 15] was 14%, the “Mass, wet, root” value [2, 15] was 9.58 g/100 plantlings and the “Mass, wet, root, + % to control” value [2, 15] was 18%. The “Mass, wet, sprout” value [2, 15] was 8.75 g/100 plantlings, the “Mass, wet, sprout, + % to control” value [2, 15] was 40% and the “Length, root” value [2, 16] was 5.1 cm. For the same substance, the “Length, root, + % to control” value [2, 16] was 6%, the “Length, sprout” value [2, 16] was 4.4 cm and the “Length, sprout, + % to control” value [2, 16] was 26%. The “Mass, dry, root” value [2, 16] was 1.35 g/100 plantlings, the “Mass, dry, root, + % to control” value [2, 16] was 13% and the “Mass, dry, sprout” value [2, 16] was 1.07 g/100 plantlings. For the same substance, the “Mass, dry, sprout, + % to control” value [2, 16] was 8%, the “Mass, wet, root” value [2, 16] was 9.13 g/100 plantlings and the “Mass, wet, root, + % to control” value [2, 16] was 12%. The “Mass, wet, sprout” value [2, 16] was 7.88 g/100 plantlings, the “Mass, wet, sprout, + % to control” value [2, 16] was 26% and the “Length, root” value [2, 17] was 5.0 cm. The “Length, root, + % to control” value [2, 17] was 4%, the “Length, sprout” value [2, 17] was 3.9 cm and the “Length, sprout, + % to control” value [2, 17] was 11%. For the same substance, the “Mass, dry, root” value [2, 17] was 1.25 g/100 plantlings, the “Mass, dry, root, + % to control” value [2, 17] was 5% and the “Mass, dry, sprout” value [2, 17] was 0.97 g/100 plantlings. The “Mass, dry, sprout, + % to control” value [2, 17] was −2%, the “Mass, wet, root” value [2, 17] was 8.61 g/100 plantlings and the “Mass, wet, root, + % to control” value [2, 17] was 6%. For the same substance, the “Mass, wet, sprout” value [2, 17] was 6.79 g/100 plantlings, the “Mass, wet, sprout, + % to control” value [2, 17] was 9% and the “Length, root” value [2, 18] was 4.8 cm. The “Length, root, + % to control” value [2, 18] was 0%, the “Length, sprout” value [2, 18] was 3.7 cm and the “Length, sprout, + % to control” value [2, 18] was 6%. The “Mass, dry, root” value [2, 18] was 1.21 g/100 plantlings, the “Mass, dry, root, + % to control” value [2, 18] was 2% and the “Mass, dry, sprout” value [2, 18] was 0.92 g/100 plantlings. The “Mass, dry, sprout, + % to control” value [2, 18] was −7%, the “Mass, wet, root” value [2, 18] was 8.37 g/100 plantlings and the “Mass, wet, root, + % to control” value [2, 18] was 3%. The “Mass, wet, sprout” value [2, 18] was 6.35 g/100 plantlings, the “Mass, wet, sprout, + % to control” value [2, 18] was 2% and the “Length, root, + % to control” value ([2]; corn, 1·10^−8% solution) was 16%. The “Length, sprout, + % to control” value ([2]; corn, 1·10^−8% solution) was 37%, the “Mass, dry, root, + % to control” value ([2]; corn, 1·10^−8% solution) was 28.5% and the “Mass, dry, sprout, + % to control” value ([2]; corn, 1·10^−8% solution) was 18%. The “Mass, wet, root, + % to control” value ([2]; corn, 1·10^−8% solution) was 31%, the “Mass, wet, sprout, + % to control” value ([2]; corn, 1·10^−8% solution) was 41% and the “Germination energy, %” value [3, 19] was 88.0%. The “Germination rate, %” value [3, 19] was 96.0%, the Germination energy ([3]; 1·10^−6% solution) was 81.7% and the Germination rate ([3]; 1·10^−6% solution) was 88.3%. The Germination energy ([3]; 1·10^−7% solution) was 84.3%, the Germination rate ([3]; 1·10^−7% solution) was 90.0% and the Germination energy ([3]; 1·10^−8% solution) was 85.7%. It also gave a Germination rate ([3]; 1·10^−8% solution) of 92.0%, a Germination energy ([3]; 1·10^−9% solution) of 87.7% and a Germination rate ([3]; 1·10^−9% solution) of 94.0%. For the same substance, the Germination energy ([3]; 1·10^−10% solution) was 84.7%, the Germination rate ([3]; 1·10^−10% solution) was 96.7% and the Germination energy ([3]; 1·10^−10% solution, listed as Cu) was 88.7%. It also gave a Germination energy ([3]; 1·10^−11% solution) of 85.7%, a Germination rate ([3]; 1·10^−11% solution) of 94.3% and a Germination energy ([3]; 1·10^−12% solution) of 82.0%. It also gave a Germination rate ([3]; 1·10^−12% solution) of 87.7%, a Germination energy [3, 20] of 88.0% and a Germination rate [3, 20] of 96.0%.
